Measured values from patent US11993588B2, “Crystalline forms of a MAGL inhibitor” (H. Lundbeck A/S, priority 2016, dated 2024).

How the values were obtained:
Assay type in all cases: physicochemical
[1] = Competitive slurrying of Form 1 and 2 mixtures; conditions: 50:50 Form 1 and 2 slurries in acetone, ethyl acetate, methylethyl ketone, 2-propanol; 60° C. and ambient, ca. 48 hours
Method: Four solvents (acetone, ethyl acetate, methylethyl ketone, and 2-propanol) were chosen for competitive slurrying. Saturated solutions were prepared of Form 1 in the chosen solvents and added to 20 mg of 50:50 Form 1 and 2 mixtures to create slurries. The slurries were shaken at 60° C. and ambient temperature for ca. 48 hours. Solids were then isolated by centrifuge filtration and analysed by XRPD.

[2] = Heating to 140° C., cooling and XRPD; conditions: heated to 140° C. and allowed to cool
Method: Material from Compound 2 (Form 1) was also heated to 140° C. and allowed to cool. The material was analysed by XRPD (FIG. 12), to determine any form change, which could be consistent with a solid-solid transition.

7-day stability testing = experiment: 7-day stability testing
Method: (§1) Form 2 of Compound 2 was scaled up in two solvents. Material underwent 7-day stability testing and/or aqueous solubility assessment. The 7-day stability testing was conducted as follows. Material was exposed to environments of 40° C./75% RH, ambient light and 80° C. for 7 days and the resulting solids analysed by XRPD to determine if any changes had occurred, and by HPLC to determine purity. The aqueous solubility assessment was conducted as follows. A slurry was created in deionised water (5.1 mg of Form 2 and 300 μL of water) and shaken for ca. 24 hours at ambient temperature (ca. 22° C.). The initial pH and final pH were measured. The resulting mixture was then isolated by centrifuge filtration, and the solution obtained analysed by HPLC to calculate the concentration of material dissolved. Remaining solid was analysed by XRPD to determine if any changes had occurred on slurrying.

[3] = Gravimetric vapor sorption (GVS); conditions: for weight uptake / hygroscopic nature: GVS; for weight uptake: at 90% RH; for Post-GVS analysis by XRPD (form change): after GVS sorption/desorption cycle
Method: Approximately 10 mg of sample was placed into a mesh vapour sorption balance pan and loaded into an IGASorp Moisture Sorption Analyser balance by Hiden Analytical. The sample was subjected to a ramping profile from 40-90% relative humidity (RH) at 10% increments, maintaining the sample at each step until a stable weight had been achieved (98% step completion). After completion of the sorption cycle, the sample was dried using the same procedure to 0% RH, and finally taken back to the starting point of 40% RH. The weight change during the sorption/desorption cycles were plotted, allowing for the hygroscopic nature of the sample to be determined.

[4] = Aqueous solubility assessment
Method: as §1

[5] = Dynamic vapor sorption (DVS)
Method: Approximately 10 mg of sample was placed into a mesh vapour sorption balance pan and loaded into a DVS-1 dynamic vapour sorption balance by Surface Measurement Systems. The sample was subjected to a ramping profile from 40-90% relative humidity (RH) at 10% increments, maintaining the sample at each step until a stable weight had been achieved (99.5% step completion). After completion of the sorption cycle, the sample was dried using the same procedure to 0% RH and then a second sorption cycle back to 40% RH. The weight changes during the sorption/desorption cycles were plotted, allowing for the hygroscopic nature of the sample to be determined. XRPD analysis was then carried out on any solid retained.

[6] = Solvent solubility screen for Compound 2; conditions: amorphous HCl salt; for solubility: 40 °C, thermodynamic from solid, read-out: Approximate Solubility
Method: Approximately 10 mg of amorphous HCl salt (from 500 mg batch) was placed in each of 28 vials and 5 volume aliquots of the appropriate solvent systems were added to the appropriate vial. Between each addition, the mixture was checked for dissolution and if no dissolution was apparent, the mixture was heated to ca. 40° C. and checked again. This procedure was continued until dissolution was observed or 100 volumes of solvent had been added. Then a further addition of 100 volumes was added to samples which had not dissolved. If 200 volumes of solvent were added without dissolution of the material, solubility was calculated to be below this point.

[7] = Solubility measurement in t-BME; conditions: organic solvent or mixture, thermodynamic from solid; solvent addition method, 10 mg sample, up to 100 mL t-BME
Method: Solubility of Form 1 of Compound 2 was measured using the solvent addition method as described in Example 14 on 10 mg of sample. t-BME was added in 1 mL aliquots up to 10 mL, then in 5 mL and 10 mL aliquots up to a total volume of 100 mL.

[8] = listed as Form 1 of Compound 2, mono-HCl salt
[9] = listed as Form 2 (Compound 2), mono-HCl salt

Question: With `Cl.O=C(OC(C(F)(F)F)C(F)(F)F)N1CCN(Cc2ccc(C(F)(F)F)cc2N2CCCC2)CC1` [Compound 2, 1,1,1,3,3,3-hexafluoropropan-2-yl 4-(2-(pyrrolidin-1-yl)-4-(trifluoromethyl)benzyl)piperazine-1-carboxylate mono-HCl salt] as the compound, how does the “relative thermodynamic stability of polymorphs” value [1] read?
Answer: thermodynamically more stable than Form 1

Question: What about the “form change by XRPD after heating” value [2] of the same compound?
Answer: remain unchanged

Question: And the “HPLC purity after stability testing” value (7-day stability testing; 40° C./75% RH for 7 days)?
Answer: > 99.9%

Question: And the “solid form by XRPD after stability testing” value (7-day stability testing; 40° C./75% RH, ambient light and 80° C. for 7 days)?
Answer: remain the same form

Question: And the “HPLC purity after stability testing” value (7-day stability testing; 80° C. for 7 days)?
Answer: 99.9%

Question: And the “HPLC purity after stability testing” value (7-day stability testing; ambient light / ambient conditions for 7 days)?
Answer: > 99.9%

Question: What about the weight uptake [3, 8] of the same compound?
Answer: < 0.1%

Question: And the weight uptake [3, 9]?
Answer: < 0.08%

Question: And the hygroscopic nature [3, 8]?
Answer: very non-hygroscopic

Question: And the hygroscopic nature [3, 9]?
Answer: (very) non-hygroscopic

Question: What about the “Post-GVS analysis by XRPD (form change)” value [3, 8] of the same compound?
Answer: remain unchanged

Question: What about the “Post-GVS analysis by XRPD (form change)” value [3, 9] of the same compound?
Answer: remained the same crystalline form

Question: What about the “dissociation of the salt in water” value [4, 8] of the same compound?
Answer: dissociates readily to the free base

Question: What about the “dissociation of the salt in water” value [4, 9] of the same compound?
Answer: dissociate to the free base

Question: And the solubility at 24 h ([4]; thermodynamic from solid, slurry in deionised water, ca. 24 hours, ambient (ca. 22° C.), initial pH 1.87, final pH 1.68)?
Answer: 0.5 mg/mL

Question: What about the hygroscopic nature ([5]; DVS) of the same compound?
Answer: non-hygroscopic

Question: And the total uptake ([5]; DVS, at 90% RH)?
Answer: < 0.12%

Question: What about the “Post-DVS XRPD analysis (form change)” value ([5]; after DVS cycle) of the same compound?
Answer: remain the same crystalline form

Question: What about the solubility ([6]; aqueous with cosolvent or surfactant or cyclodextrin, 2-Propanol:water (50%), partial dissolution) of the same compound?
Answer: < 5 mg/mL

Question: What about the solubility ([6]; aqueous with cosolvent or surfactant or cyclodextrin, Acetone:water (50%), partial dissolution) of the same compound?
Answer: < 5 mg/mL

Question: And the solubility ([6]; aqueous with cosolvent or surfactant or cyclodextrin, Methanol:water (50%))?
Answer: < 5 mg/mL

Question: What about the solubility ([6]; organic solvent or mixture, 1,4-Dioxane) of the same compound?
Answer: 5 mg/mL

Question: What about the solubility ([6]; organic solvent or mixture, 1-Butanol) of the same compound?
Answer: < 5 mg/mL

Question: What about the solubility ([6]; organic solvent or mixture, 2-Ethoxyethanol, precipitated overnight) of the same compound?
Answer: 49 mg/mL

Question: And the solubility ([6]; organic solvent or mixture, 2-Methyl tetrahydrofuran)?
Answer: < 5 mg/mL

Question: And the solubility ([6]; organic solvent or mixture, 2-Propanol)?
Answer: 5 mg/mL

Question: And the solubility ([6]; organic solvent or mixture, Acetone)?
Answer: 40 mg/mL

Question: What about the solubility ([6]; organic solvent or mixture, Acetonitrile) of the same compound?
Answer: 40 mg/mL

Question: What about the solubility ([6]; organic solvent or mixture, Anisole, partial dissolution) of the same compound?
Answer: < 5 mg/mL

Question: And the solubility ([6]; organic solvent or mixture, Dichloromethane, precipitated overnight)?
Answer: 70 mg/mL

Question: And the solubility ([6]; organic solvent or mixture, Diisopropyl Ether)?
Answer: < 5 mg/mL

Question: And the solubility ([6]; organic solvent or mixture, Dimethylacetamide)?
Answer: 99 mg/mL

Question: And the solubility ([6]; organic solvent or mixture, Dimethylformamide)?
Answer: 99 mg/mL

Question: And the solubility ([6]; organic solvent or mixture, Dimethylsulfoxide)?
Answer: 66 mg/mL

Question: What about the solubility ([6]; organic solvent or mixture, Ethanol) of the same compound?
Answer: 33 mg/mL

Question: What about the solubility ([6]; organic solvent or mixture, Ethyl acetate) of the same compound?
Answer: 5 mg/mL

Question: What about the solubility ([6]; organic solvent or mixture, Isopropyl acetate) of the same compound?
Answer: < 5 mg/mL

Question: What about the solubility ([6]; organic solvent or mixture, Methanol) of the same compound?
Answer: 101 mg/mL

Question: And the solubility ([6]; organic solvent or mixture, Methyl isobutyl ketone, partial dissolution)?
Answer: < 5 mg/mL

Question: And the solubility ([6]; organic solvent or mixture, Methylethyl ketone)?
Answer: 28 mg/mL

Question: What about the solubility ([6]; organic solvent or mixture, N-Methyl-2-pyrrolidone) of the same compound?
Answer: 101 mg/mL

Question: What about the solubility ([6]; organic solvent or mixture, Tetrahydrofuran, precipitated overnight) of the same compound?
Answer: 25 mg/mL

Question: What about the solubility ([6]; organic solvent or mixture, Toluene) of the same compound?
Answer: < 5 mg/mL

Question: And the solubility ([6]; organic solvent or mixture, tert-Amyl alcohol)?
Answer: < 5 mg/mL

Question: And the solubility ([6]; organic solvent or mixture, tert-Butylmethyl ether)?
Answer: < 5 mg/mL

Question: What about the solubility ([6]; Water) of the same compound?
Answer: < 5 mg/mL

Question: What about the “concentration at which dissolution was initially observed” value ([6]; Acetone:water (50%), precipitated after ca. 2 h) of the same compound?
Answer: 18000 µg/mL

Question: What about the solubility [7] of the same compound?
Answer: < 0.1 mg/mL
